From patent US12528777B2, “Quinazolinones derivatives for treatment of non-alcoholic fatty liver disease, preparation and use thereof” (Council of Scientific and Industrial Research, priority 2020, dated 2026) come the findings set out here.

The test system of one assay is ATGL. The assay is described as follows: Western blot of ATGL level in HepG2 cells. Type of assay: cell-based. Also noted: key to Increase in ATGL level: + = slight or in insignificant; ++ = Moderate; +++ and ++++ = active; +++ and ++++ = active; +++++ = very active. Conditions: for Increase in ATGL level: HepG2 cells, score; for Increase in ATGL level / ATGL level in HepG2 cells: western blot; for ATGL level in HepG2 cells: 24 hours, 10 μM screening or 50 nM-5 μM dose dependent; for EC50: fold increase of ATGL by densitometry, as % of 1.6 fold maximum with siCOP1, doses 10-5000 nM, read-out: EC50 (in-vitro). The procedure: (§1) To select the compounds capable of inhibiting the ubiquitination of ATGL by COP1 by targeting the VP motif, confocal microscopy was performed with the provided molecules. If the compound was effective in inhibiting the interaction, there would be a reduction in the number of fat droplets in the cells after treatment. […] With this rationale in mind, HepG2 cells were induced to accumulate lipid droplets after treatment with 250 µM of oleate and 10 μM of the specific compounds were added. The potential of the compounds to bring about a reduction in the number of fat droplets was then checked by comparison with oleate induced cells by counting number of droplets of approximately 20 cells from each treatment and calculating the average number of lipid droplets of each cell. The selected compounds were then subjected to dose dependent treatments and the ones which could maintain its potency to reduce fat droplets at lower doses were then selected for western blot analysis. The compound which could reduce the number of fat droplets in the cells are expected to raise the levels of ATGL since they are likely to deter COP1 from ubiquitinating ATGL. This increase will be visible only in the protein level and gene expression is likely to remain unchanged since ubiquitination is a […] modification. Thus, western blot was performed to check ATGL levels in the cells with the selected molecules.
HepG2 cells were treated with the compounds 9, 10, 11, 17, 18, 23, 24, 115, 123, 127, 139,107, 171, 179, 73, 187, 211, 215, 219, 223, 232, 238, 241, 244, 258, 299, 308, and 333a, (10 μM for initial screening and 50 nM, 100 nM, 200 nM, 500 nM, 1 μM and 5 μM for dose dependent assays) for 24 hours. After removing media from the cells, the wells were washed with 1×PBS twice to remove any remnant media. Cells were then lysed in lysis buffer containing 50 mM Tris-HCl (pH 7.4), 100 mM NaCl, 1 mM EDTA, 1 mM EGTA, 1% Triton X-100 and protease inhibitor cocktail (Millipore, Billierica, MA, USA). Following centrifugation at 20,000 g for 20 minutes, the protein solution was extracted from the cells. Protein was estimated using Bradford assay. Bradford's reagent (BioRad) was diluted in 1:4 ratio in double distilled water. 2 μl of protein sample was added to 100 μl of the reagent and absorbance was measured at 595 nm. […] of protein was diluted in lysis buffer. 1× loading buffer diluted from 5× stock containing 250 mM Tris-HCl (pH 6.8), 10% SDS, 50% glycerol, 0.1% bromophenol Blue and 10% β-mercaptoethanol was added. The protein samples were then heated at 95° C. for 10 minutes, cooled and centrifuged at 12,000 g for 2 minutes prior to loading.
For western blotting, the proteins were resolved in 10% SDS PAGE (discontinuous buffer system). 1× running buffer containing SDS, Tris Base and Glycine was used to run the gel at 80V for approximately 2 hours. Transfer was done using PVDF membrane (Millipore) having pore size of 0.45 μm. 1× transfer buffer containing Tris-Base, Glycine and 20% methanol was used for wet transfer. Transfer was done at 90V for 3 hours. Following transfer, the PVDF membrane containing the proteins were washed in 1×PBST comprising of 1×PBS and 1% Tween 20 (Sigma Aldrich). The membrane was then incubated for 1 hour at room temperature in 5% skim milk powder to block the non-specific sites. Following multiple washes with 1×PBST to wash away any remaining blocking buffer, the required primary antibody (COP1 [Bethyl Laboraties], ATGL [Cell Signalling Technology] or Actin[Cell Signalling Technology]) prepared with 1×PBST, 1% Bovine Serum Albumin and 0.04% Sodium Azide was added to the membrane and incubated overnight at 4° C. The next day, the membrane was again washed multiple times with 1×PBST to remove any unbound primary antibody. The membrane was then incubated with goat anti-rabbit secondary antibody (Genei) for 1 hour at room temperature and washed again for multiple times with 1×PBST. […]
Background: Immunoblotting shows a protein as a band on a membrane.

Another assay deals with HepG2 cells. The assay is described as follows: Confocal microscopy: lipid droplets in oleate induced HepG2 cells. Conditions: for Number of lipid droplets: HepG2 cells, 250 μM oleate induction; for Reduction in Lipid Droplets: oleate induced HepG2 cells, score. Also noted: key to Reduction in Lipid Droplets: + = slight or in insignificant; ++ = Moderate; +++ and ++++ = active; +++ and ++++ = active; +++++ = very active. Type of assay: cell-based. The procedure:
as §1
HepG2 cells were plated in confocal dishes (SPL, Genetix Biotech Asia Pvt. Ltd.). The cells were allowed to adhere and divide for 16 hours. 10 μM for initial screening and 10 nM, 20 nM, 50 nM, 100 nM, 200 nM, 500 nM, 1 μM and 5 μM for dose dependent assays of the compounds 9 and 107 were dissolved in DMSO and added to the cells. 250 μM of oleate was used for induction. BSA (Sigma Aldrich) was used as a negative control. Post 24 hours of treatment, media was decanted from the cells and washed with 1×PBS solution to remove any remnant. 200 μl of staining solution containing 200 ng/ml BODIPY (Invitrogen) and 25 µg/ml HOECKST342 (Invitrogen) were added to the cells and incubated at 37° C. for 30 minutes under dark conditions. Cells were washed 3 times with 1×PBS to remove excess stain. FLUOVIEW FV10i (Olympus) was used to visualise the cells.

With `CCCCn1cnc2ccc(NC(=O)Nc3cccc(C(C)=O)c3)cc2c1=O` [Compound 175, 1-(3-acetylphenyl)-3-(3-butyl-4-oxo-3,4-dihydroquinazolin-6-yl)urea], in the assay on ATGL, the “Increase in ATGL level” value is reported as “+” and the “ATGL level in HepG2 cells” value was “did not increase ATGL level”. Also, in the assay with HepG2 cells, the “Number of lipid droplets” value is on record as “reduced lipid droplets” and the “Reduction in Lipid Droplets” value is “+”.
Take `CC(=O)c1cccc(NC(=O)Nc2ccc3ncn(-c4cccnc4)c(=O)c3c2)c1` [Compound 155, 1-(3-acetylphenyl)-3-(4-oxo-3-(pyridin-3-yl)-3,4-dihydroquinazolin-6-yl)urea]: in the assay with ATGL, the “Increase in ATGL level” value was “++” and the “ATGL level in HepG2 cells” value is given as “some sort of increase in ATGL level”. In the assay on HepG2 cells, the “Number of lipid droplets” value is “reduction in lipid droplets” and the “Reduction in Lipid Droplets” value is given as “+++”.
Consider `COCCn1cnc2ccc(NC(=O)Nc3cc(C(=O)OC)ccc3OC)cc2c1=O` [Compound 12, methyl 4-methoxy-3-(3-(3-(2-methoxyethyl)-4-oxo-3,4-dihydroquinazolin-6-yl)ureido)benzoate], for which, in the assay on ATGL, the “Increase in ATGL level” value is reported as “+++”. Besides, in the assay with HepG2 cells, the “Reduction in Lipid Droplets” value was “++”.
Consider `COc1cccc(-n2cnc3ccc(NC(=O)Nc4cccc(C(C)=O)c4)cc3c2=O)c1` [Compound 103, 1-(3-acetylphenyl)-3-(3-(3-methoxyphenyl)-4-oxo-3,4-dihydroquinazolin-6-yl)urea], for which, in the assay on ATGL, the “Increase in ATGL level” value is “+” and the “ATGL level in HepG2 cells” value is “some sort of increase in ATGL level”. Further, in the assay with HepG2 cells, the “Number of lipid droplets” value is given as “reduction in lipid droplets” and the “Reduction in Lipid Droplets” value is “+”.
Consider `COCCn1cnc2ccc(NC(=O)Nc3ccccc3OC)cc2c1=O` [Compound 41, 1-(3-(2-methoxyethyl)-4-oxo-3,4-dihydroquinazolin-6-yl)-3-(2-methoxyphenyl)urea], for which the “Increase in ATGL level” value in the assay on ATGL was “++++”. The “Reduction in Lipid Droplets” value with HepG2 cells is given as “++”.
On the same counts, the results for `CCOCCn1cnc2ccc(NC(=O)Nc3ccc(C(C)=O)cc3)cc2c1=O` [Compound 94, 1-(4-acetylphenyl)-3-(3-(2-ethoxyethyl)-4-oxo-3,4-dihydroquinazolin-6-yl)urea] are “+” and “++”.
`COCCn1c(CN2CCCC2)nc2ccc(NC(=O)Nc3cccc(C(C)=O)c3)cc2c1=O` [Compound 232, 1-(3-acetylphenyl)-3-(3-(2-methoxyethyl)-4-oxo-2-(pyrrolidin-1-ylmethyl)-3,4-dihydroquinazolin-6-yl)urea]: in the assay with ATGL, the “Increase in ATGL level” value was “+++”, the half-maximal effective concentration (EC50) came out at 434 nM and the “ATGL level in HepG2 cells” value is “increased ATGL level”.
Consider `COCCn1c(CN2CCN(C)CC2)nc2ccc(NC(=O)Nc3cccc(C(C)=O)c3)cc2c1=O` [Compound 244, 1-(3-acetylphenyl)-3-(3-(2-methoxyethyl)-2-((4-methylpiperazin-1-yl)methyl)-4-oxo-3,4-dihydroquinazolin-6-yl)urea], for which the “ATGL level in HepG2 cells” value in the assay on ATGL was “increased ATGL level”.
Regarding `COCCn1cnc2ccc(NC(=O)Nc3cccc(C(C)=O)c3)c(-c3ccc(F)cc3)c2c1=O` [Compound 47, 1-(3-acetylphenyl)-3-(5-(4-fluorophenyl)-3-(2-methoxyethyl)-4-oxo-3,4-dihydroquinazolin-6-yl)urea], the “Increase in ATGL level” value with ATGL was “+++”.
Turning to `CC(=O)c1cccc(NC(=O)Nc2ccc3ncn(C4CCCCC4)c(=O)c3c2)c1` [Compound 187, 1-(3-acetylphenyl)-3-(3-cyclohexyl-4-oxo-3,4-dihydroquinazolin-6-yl)urea], the “Increase in ATGL level” value in the assay with ATGL is given as “+++”.
With `COCCn1cnc2ccc(NC(=O)Nc3ccccc3C(F)(F)F)cc2c1=O` [Compound 39, 1-(3-(2-methoxyethyl)-4-oxo-3,4-dihydroquinazolin-6-yl)-3-(2-(trifluoromethyl)phenyl)urea], the “Increase in ATGL level” value in the assay with ATGL is given as “++”.
With `COCCn1c(C2CCN(C(=O)OC(C)(C)C)CC2)nc2ccc(NC(=O)Nc3cccc(C(C)=O)c3)cc2c1=O` [Compound 299, tert-butyl 4-(6-(3-(3-acetylphenyl)ureido)-3-(2-methoxyethyl)-4-oxo-3,4-dihydroquinazolin-2-yl)piperidine-1-carboxylate], in the assay with ATGL, the concentration giving a half-maximal response (EC50) amounted to 290 nM and the “ATGL level in HepG2 cells” value is on record as “increased ATGL level”.
`COCCn1cnc2ccc(NC(=O)Nc3cccc(C(C)=O)c3)c(-c3ccc(C(F)(F)F)cc3)c2c1=O` [Compound 66, 1-(3-acetylphenyl)-3-(3-(2-methoxyethyl)-4-oxo-5-(4-(trifluoromethyl)phenyl)-3,4-dihydroquinazolin-6-yl)urea]: the “Increase in ATGL level” value in the assay with ATGL is given as “++”.
As to `COCCn1cnc2ccc(NC(=O)Nc3cccc(C(C)=O)c3)c(C3CCN(C(=O)OC(C)(C)C)CC3)c2c1=O` [Compound 61, tert-butyl 4-(6-(3-(3-acetylphenyl)ureido)-3-(2-methoxyethyl)-4-oxo-3,4-dihydroquinazolin-5-yl)piperidine-1-carboxylate], in the assay with ATGL, the “Increase in ATGL level” value was “+”.
For `COCCn1c(C)nc2ccc(NC(=O)Nc3cccc(C(C)=O)c3)c(Br)c2c1=O` [Compound 345, 1-(3-acetylphenyl)-3-(5-bromo-3-(2-methoxyethyl)-2-methyl-4-oxo-3,4-dihydroquinazolin-6-yl)urea], in the assay on ATGL, the “Increase in ATGL level” value is given as “+”.
For `COCCn1cnc2ccc(NC(=O)Nc3cccc(CNC(C)=O)c3)cc2c1=O` [Compound 25, N-(3-(3-(3-(2-methoxyethyl)-4-oxo-3,4-dihydroquinazolin-6-yl)ureido)benzyl)acetamide], the “Increase in ATGL level” value in the assay on ATGL is “+”.
As for `CC(=O)c1cccc(NC(=O)Nc2ccc3ncn(CC(=O)Nc4ccccc4Br)c(=O)c3c2)c1` [Compound 259, 2-(6-(3-(3-acetylphenyl)ureido)-4-oxoquinazolin-3 (4H)-yl)-N-(2-bromophenyl)acetamide], the “Increase in ATGL level” value in the assay on ATGL was “+++”.
In the case of `CC(=O)c1cccc(NC(=O)Nc2ccc3ncn(N4CCOCC4)c(=O)c3c2)c1` [Compound 340, 1-(3-acetylphenyl)-3-(3-morpholino-4-oxo-3,4-dihydroquinazolin-6-yl)urea], the “Increase in ATGL level” value in the assay with ATGL was “+”.
For the molecule `COCCn1cnc2ccc(NC(=O)Nc3cccc(C(C)=O)c3)c(C3=CCNCC3)c2c1=O` [Compound 60, 1-(3-acetylphenyl)-3-(3-(2-methoxyethyl)-4-oxo-5-(1,2,3,6-tetrahydropyridin-4-yl)-3,4-dihydroquinazolin-6-yl)urea], the “Increase in ATGL level” value with ATGL is reported as “+”.

Usually EC50 stands for the concentration at which the effect is half-maximal.
